The text below walks through data of US20200384007A1, “LIPID NANOPARTICLES CONTAINING PHARMACEUTICAL AND/OR NUTRACEUTICAL AGENTS AND METHODS THEREOF” (Board of Regents, The University of Texas System, priority 2019, published 2020).

Series [1] can be described thus: Physical and chemical stability as lyophilized powder or dry waxy solid at room temperature. In kind it is physicochemical. The settings on record: DHA-dFdC-vitamin E (5.047% w/w) waxy solid mixture, 14 days. On the procedure: A 30% (w/v) stock solution of sucrose as lyoprotectant was prepared with de-ionized and filtered (0.2 μm) water. 900 μL DHA-dFdC-SLNs in water suspension was mixed with 100 μL sucrose solution to obtain a final suspension having 3% (w/v) sucrose. DHA-dFdC-SLNs in suspension were stored at −20° C. for 30 min, transferred to −80° C. for 60 min, and finally transferred to a VirTis Advantage bench top tray lyophilizer (The VirTis Company, Inc. Gardiner, N.Y.). Lyophilization was performed over 72 hours (h) at pressure less than 200 mTorr under nitrogen atmosphere. The shelf temperature was gradually ramped from −40° C. to 26° C. After lyophilization, samples were sealed and stored in a desiccator at room temperature, protected from light.
To evaluate the physical and chemical stability of DHA-dFdC-SLNs in lyophilized powder, DHA-dFdC was extracted from the powder 0, 7, and 30 days post-storage. Lyophilized samples were reconstituted in 1 mL de-ionized and filtered (0.2 μm) water. […] The sample was re-dissolved in 100 μL of THF, and concentration was measured by HPLC.
As a control, DHA-dFdC was dissolved in ethanol and mixed with vitamin E at a final concentration of 5.047% (w/w) (Naguib et al., Neoplasia, 2016; 18(1):33-48). The solution was dried under nitrogen, sealed, and stored at room temperature, protected from light, and the content of DHA-dFdC was measured at various time points

The subject of the next series is B16-F10 cells. Nature of the series: In vitro cytotoxicity assay (MTT). The settings on record: Mus musculus, B16F10 cells, 48 h of incubation. In kind it is cell-based, murine. On the procedure: (§1) Cytotoxicity of DHA-dFdC-SLNs was evaluated in TC-1, B16-F10, and M-Wnt cells. Cells were seeded into 96-well plates (4000 cells/well for TC-1 and B16-F10 cells, 1000 cells/well for M-Wnt cells) and incubated at 37° C., 5% CO2 overnight. Cells were treated with various concentrations of DHA-dFdC, DHA-dFdC-SLNs, DHA-dFdC-free SLNs, or dimethyl sulfoxide (DMSO) for up to 48 h. As a control, cells were treated with fresh medium. Cell survival was determined using an MTT assay (Naguib et al., Mol. Pharma., 2014; 11(4):1239-1249). DHA-dFdC was dissolved in DMSO and diluted with cell culture media, whereas DHA-dFdC-SLNs and DHA-dFdC-free SLNs were dispersed directly in cell culture media.

The subject of a further series is M-Wnt cells. Nature of the series: In vitro cytotoxicity assay (MTT). The settings on record: Mus musculus, 24 h of incubation. In kind it is cell-based, murine. The protocol: as §1
The subject of series [2] is B16-F10 tumors. Nature of the series: Antitumor activity of i.v. DHA-dFdC-SLNs in a mouse model. As to conditions: 50 mg/kg DHA-dFdC on days 7, 10, 13, 16. Format: in vivo. The protocol: Female C57BL/6 mice (18-20 g, 6-8 weeks) were subcutaneously (s.c.) injected with B16-F10 (5×10^5 cells/mouse) in the right flank on day 0. Seven days later, mice were randomized in 5 groups (n=5-6) and i.v. injected with DHA-dFdC (1 mg/mouse, equivalent to 50 mg/kg) dissolved a vehicle solution (Tween 80 (10%, w/v), ethanol (5.2%, v/v), and mannitol (5%, w/v) in water), the vehicle solution (as a control) (Naguib et al., Neoplasia, 2016; 18(1):33-48; Valdes et al., Pharma. Res., 2017; 34(6):1224-1232), DHA-dFdC-SLNs (equivalent to 1 mg of DHA-dFdC/mouse), or the equivalent dose of DHA-dFdC-free SLNs; both SLNs were dispersed in sterile mannitol 5%, (w/v). As a control, one group of mice were left untreated. Treatments were repeated every 3 days for a total of 4 times. Mouse health and tumor growth were monitored daily. Tumor size was measured 2-3 times a week, and tumor volume was calculated as: volume (mm^3)=(length×width^2)/2. Mice were euthanized 17 days after B16-F10 cell injection, and tumor tissues were collected for histology study. For untreated mice, the length of some of the tumors reached 15 mm before day 17 and had to be euthanized earlier.

Series [3] deals with B16-F10 tumors. Kind of series: Histology (H&E) of tumor tissues. The settings on record: tumors collected on day 17 after i.v. treatment. In kind it is in vivo, C57BL/6 mice. The source says: Tumor tissues were fixed in formalin, embedded, and stained with hematoxylin and eosin (H&E) in the Histological and Tissue Analysis Facility in the Dell Pediatric Research Institute at The University of Texas at Austin.

Series [4] is described as follows: Pharmacokinetic studies, oral and i.v. (Example 2). Format: in vivo, C57BL/6 mice. On the procedure: The Institutional Animal Care and Use Committee at The University of Texas at Austin approved the animal protocol. Female C57BL/6 mice (6-8 weeks, Charles River Laboratories, Wilmington, Mass.) were fasted for 3 h. Water was allowed ad libitum. Mice were orally gavaged with DHA-dFdC dissolved in a vehicle solution (Tween 80 (10%, w/v), ethanol (5.2% v/v), and mannitol (5%, w/v) in sterile water) (Naguib, et al., Neoplasia, 2016, 18, (1), 33-48; Valdes, et al., Pharma. Res., 2017, 34, (6), 1224-1232) or the DHA-dFdC-SLNs suspended in a sterile mannitol solution (5%, w/v), or intravenously injected with the DHA-dFdC-SLNs suspended in a sterile mannitol solution (5%, w/v). The dose of DHA-dFdC was 2 mg per mouse. Mice (n=3) were euthanized at various time points (e.g., 0.25, 0.5, 1, 2, 5, 8, 12, and 24 h). Blood was collected into heparin-coated tubes, which were then centrifuged at 13,000 rcf for 20 min to isolate plasma. The plasma (200 μL) was mixed with 200 μL of isopropanol and 200 μL of cold PBS, vortexed and then incubated at 4° C. for 5 min Following incubation, 1000 μl of ethyl acetate was added. The mixture was vortexed for 5 min, followed by centrifugation at 18,000 rcf for 5 min. The supernatant was collected and dried under nitrogen. Finally, the residue was re-dissolved in 100 μl of THF, which was then analyzed using HPLC (Naguib, et al., Neoplasia, 2016, 18, (1), 33-48). As internal control 4-(N)-stearoyl 2′,2′-difluorodeoxycytidine (GemC18) was added in the samples before extraction (Sloat, et al., Intl. J. Pharma., 2011, 409, (1), 278-288). Data were analyzed using PK Solver®, assuming a two-compartmental model (Wang, et al., Oncotarget, 2017, 8, (52), 89876).

Series [5] concerns B16-F10 tumors. Kind of series: Antitumor activity of orally administered DHA-dFdC-SLNs in tumor-bearing mice (survival). Format: in vivo. The settings on record: oral gavage. The protocol:
Female C57BL/6 mice (18-20 g) were subcutaneously (s.c) injected with B16-F10 (5×10^5 cells/mouse) in the right flank on day 0. Seven days later, mice were randomized into 4 groups (n=7-8) and orally gavaged with DHA-dFdC (250 μg/mouse) dissolved in vehicle (Naguib, et al., Neoplasia, 2016, 18, (1), 33-48; Valdes, et al., Pharma. Res., 2017, 34, (6), 1224-1232), DHA-dFdC-SLNs (250 μg/mouse of DHA) dispersed in mannitol 5%, or DHA-dFdC-free SLNs dispersed in mannitol 5%. As a control, one group of mice were left untreated. Treatment was repeated every day until day 11. Mice were allowed to rest for two days, and treatment was resumed on day 13 and continued until day 20. Mice were monitored daily until the endpoint (e.g., death, tumor size reaching 15 mm, tumor ulceration, body weight loss of more than 20%, or other signs of severe distress and discomfort).

For series [6] the following is noted: in water; cited from earlier work.
The conditions of series [7]: in an aqueous solution, DBA/2 mice; cited from earlier work.
Series [8] has as its system NCI-60 DTP human tumor cell lines. The settings on record: cited from earlier work.
The next series deals with pancreatic tumor. As to conditions: several mouse models of pancreatic cancer; cited from earlier work.
[9] abbreviates: oral administration, 2 mg DHA-dFdC per mouse.

Read-outs that look alike come from different tables or passages of the source.

For orientation: IC50 means the concentration that inhibits the measured activity by half. Low readings indicate greater potency in that assay, high ones weaker potency in that assay. By bioavailability is commonly meant dose-corrected exposure relative to a reference, in per cent. Lower therefore signals little systemic uptake. Broadly, the Tmax is the time from dosing to the highest level. Broadly, the Cmax is the peak of the concentration-time curve. Take `CC/C=C\C/C=C\C/C=C\C/C=C\C/C=C\C/C=C\CCC(=O)Nc1ccn(C2OC(CO)C(O)C2(F)F)c(=O)n1` (stereo not shown) [DHA-dFdC, 4-(N)-docosahexaenoyl 2′, 2′-difluorodeoxycytidine]: in series [1], the “DHA-dFdC left after storage” value is 19.1%±7.0. In the series on B16-F10 cells, this compound returned an IC50 of 1810 nM. Also, the half-inhibitory concentration (IC50) with M-Wnt cells turned out to be 2150 nM. Besides, in the series on B16-F10 tumors [2], the tumor growth delay is 4 days and the “tumor size / control of tumor growth versus comparison groups” value was “no significant difference”. Further, the “H&E histology findings in tumors” value in the series on B16-F10 tumors [3] was “vascular collapse, high desmoplasia, and necrotic areas”. Further, the bioavailability in series [4] (female, C57BL/6, mouse, plasma, 2 mg per mouse, oral, in Tween 80/ethanol/water solution) was 54%. For the same compound, in series [4] (female, C57BL/6, mouse, plasma, po, 2 mg, oral administration, 2 mg DHA-dFdC per mouse, read-out: Tmax), the Tmax was determined as 1.7 h. Moreover, the Cmax in series [4] (female, C57BL/6, plasma, oral administration, 2 mg DHA-dFdC per mouse) amounted to 10500 ng/mL. For the same compound, the AUC(0-t) in series [4] (female, C57BL/6, plasma, oral administration, 2 mg DHA-dFdC per mouse, read-out: AUC 0-24) stood at 114 µg·h/mL. In addition, in series [4] (setting [9]), the T1/2α is listed as 1.07 h, the time to peak (Tmax) came to 1.75 h and the k12 was determined as 0.56 h⁻¹. The “survival compared to untreated mice” value with B16-F10 tumors [5] (250 μg DHA-dFdC per mouse daily for 12 days) was “did not significantly affect mouse survival”. Moreover, the “mice showing signs of toxicity (body weight decrease of more than 20% or severe tumor ulceration)” value in the series with B16-F10 tumors [5] (in Tween 80/ethanol/water solution, 250 μg per mouse daily) is listed as 62.5%. Also, the intrinsic solubility in [6] is ~25 µg/mL. Also, the “repeat dose-maximum tolerated dose” value in series [7] is on record as 50 mg/kg. Further, in [8], the antitumor activity result was “potent and broad spectrum antitumor activity”. In addition, the “control of pancreatic tumor growth versus gemcitabine” value in the series with pancreatic tumor is “significantly more effective than the molar equivalent dose of gemcitabine”.
